A short description of data set [1]: Acute toxicity in mice (LD50). Type of data set: in vivo. The conditions noted are these: ddY male mice, suspended in 5% Arabic gum solution, observed for 7 days; for LD50 at 168 h: mouse, in vivo. As to the method:
Experimental Example 7: Acute Toxicity in Mice
Each compound of the invention was suspended in 5% Arabic gum solution and given orally (p.o.) or intraperitoneally (i.p.) to groups of ten ddY male mice weighed from 24 to 26 g at the dosage volume of 10 ml/kg. […] LD50 was determined according to the method of Wilcoxon and Litchfield.

The subject of data set [2] is influenza virus A/WSN. The data set can be described thus: animal or person. Type of data set: in vivo, mice. Conditions: in Mus musculus, 360 h, read-out: Survival rate.
Data set [3] concerns influenza A0 virus. Nature of the data set: animal or person. Type of data set: in vivo, mice. The conditions noted are these: result in words; Tables 3 and 4.
[4] abbreviates: ip, i.p., read-out: LD50 value, Intraperitoneal administration.
The mark [5] stands for this setting: po, p.o., read-out: LD50 value, Oral administration.

Like-named read-outs stand apart in the source and are kept apart here.

On to `CCOC(=O)c1cc(S(N)(=O)=O)c(Cl)cc1Cl` [Compound 32], for which the LD50 at 168 h in data set [1] (setting [4]) was greater than 1000 mg/kg. In addition, the LD50 at 168 h in data set [1] (setting [5]) was greater than 3000 mg/kg. In data set [2] (po), the responders at 100 mg/kg turned out to be 40% and the responders at 300 mg/kg amounted to 50%.
In the case of `CCC(C)OC(=O)c1cc(S(N)(=O)=O)c(Cl)cc1Cl` (stereo not shown) [Compound 36], the LD50 at 168 h in data set [1] (setting [4]) was greater than 1000 mg/kg; in data set [1] (setting [5]), greater than 3000 mg/kg. The responders at 30 mg/kg in data set [2] (ip) was 30%. Further, the responders at 100 mg/kg in data set [2] (ip) turned out to be 40%.
On to `O=C(O)c1ccc(Cl)c(S(=O)(=O)Nc2ccccc2)c1` [Compound 9], for which the “LD50 value, Oral administration” value in data set [1] (p.o.) is listed as >3,000 mg/kg.
On to `CC(C)NS(=O)(=O)c1cc(C(=O)O)ccc1Cl` [Compound 8], for which, in data set [1] (i.p.), the “LD50 value, Intraperitoneal administration” value is >1,000 mg/kg. Further, in data set [1] (p.o.), the “LD50 value, Oral administration” value was >3,000 mg/kg.
Take `CN(C)S(=O)(=O)c1cc(C(=O)O)ccc1Cl` [Compound 3]: in data set [1] (i.p.), the “LD50 value, Intraperitoneal administration” value is on record as >1,000 mg/kg. For the same compound, the “LD50 value, Oral administration” value in data set [1] (p.o.) was >3,000 mg/kg.
Regarding `NS(=O)(=O)c1cc(C(=O)OCc2ccccc2)c(Cl)cc1Cl` [Compound 39], the LD50 at 168 h is greater than 1000 mg/kg in data set [1] (setting [4]) and greater than 3000 mg/kg in data set [1] (setting [5]). In addition, the responders at 100 mg/kg in data set [2] (po) worked out at 30%. The responders at 300 mg/kg in data set [2] (po) was 40%.
`NS(=O)(=O)c1cc(C(=O)O)c(Cl)cc1Cl` [Compound 19]: the “protective action against death due to the infection” value in data set [3] is “extremely excellent activity”. Besides, the “LD50 value, Intraperitoneal administration” value in data set [1] (i.p.) is reported as >1,000 mg/kg. In data set [1] (p.o.), the “LD50 value, Oral administration” value is on record as >3,000 mg/kg.
For `CCOC(=O)c1cc(S(N)(=O)=O)c(F)cc1Cl` [Compound 42], in data set [1] (setting [4]), the LD50 at 168 h is greater than 1000 mg/kg. Also, in data set [1] (setting [5]), the LD50 at 168 h was greater than 3000 mg/kg. Further, in data set [2] (po), the responders at 100 mg/kg was found to be 40% and the responders at 300 mg/kg was 50%.
Turning to `CC(C)OC(=O)c1cc(S(N)(=O)=O)c(Cl)cc1Cl` [Compound 34], in data set [1] (setting [4]), the LD50 at 168 h was greater than 1000 mg/kg. Further, the LD50 at 168 h in data set [1] (setting [5]) was greater than 3000 mg/kg. Moreover, in data set [2] (ip), the responders at 30 mg/kg is 30% and the responders at 100 mg/kg was found to be 40%.
`CCNS(=O)(=O)c1cc(C(=O)O)ccc1Cl` [Compound 2]: the “LD50 value, Intraperitoneal administration” value in data set [1] (i.p.) is reported as >1,000 mg/kg. Further, the “LD50 value, Oral administration” value in data set [1] (p.o.) is given as >3,000 mg/kg.
Turning to `CNS(=O)(=O)c1cc(C(=O)O)ccc1Cl` [Compound 1], the “LD50 value, Intraperitoneal administration” value in data set [1] (i.p.) is recorded as >1,000 mg/kg. The “LD50 value, Oral administration” value in data set [1] (p.o.) is >3,000 mg/kg.
For `NS(=O)(=O)c1cc(C(=O)OC2CCCCC2)c(Cl)cc1Cl` [Compound 38], the LD50 at 168 h in data set [1] (setting [4]) is greater than 1000 mg/kg; in data set [1] (setting [5]), greater than 3000 mg/kg. In data set [2] (ip), the responders at 30 mg/kg came to 30%. For the same compound, the responders at 100 mg/kg in data set [2] (ip) was found to be 40%.
Regarding `O=C(O)c1ccc(Cl)c(S(=O)(=O)N2CCOCC2)c1` [Compound 11], the “LD50 value, Intraperitoneal administration” value in data set [1] (i.p.) is >1,000 mg/kg. Moreover, the “LD50 value, Oral administration” value in data set [1] (p.o.) is >3,000 mg/kg.
`COC(=O)c1ccc(F)c(S(N)(=O)=O)c1` [Compound 28]: the “LD50 value, Intraperitoneal administration” value in data set [1] (i.p.) is >1,000 mg/kg. Further, the “LD50 value, Oral administration” value in data set [1] (p.o.) was >3,000 mg/kg.

The values are drawn from patent EP0068408A1 (priority 1981, dated 1983).
